Results as given in US7199115B2, “17α-fluorosteroids, pharmaceutical compositions containing 17α-fluorosteroids and a method of making them” (Schering AG, priority 2004, dated 2007).
Where two headings read alike, the source gives them in different places.

What was measured:
pregnancy maintenance = test: Gestagen activity in pregnancy maintenance test; assay type: in vivo; details: mouse
PR-B = biological target: T1, PR-B (Homo sapiens, UniProt P06401); test: PR-B antagonisms and agonisms; assay type: cell-based
T1 sequence (P06401 1-933): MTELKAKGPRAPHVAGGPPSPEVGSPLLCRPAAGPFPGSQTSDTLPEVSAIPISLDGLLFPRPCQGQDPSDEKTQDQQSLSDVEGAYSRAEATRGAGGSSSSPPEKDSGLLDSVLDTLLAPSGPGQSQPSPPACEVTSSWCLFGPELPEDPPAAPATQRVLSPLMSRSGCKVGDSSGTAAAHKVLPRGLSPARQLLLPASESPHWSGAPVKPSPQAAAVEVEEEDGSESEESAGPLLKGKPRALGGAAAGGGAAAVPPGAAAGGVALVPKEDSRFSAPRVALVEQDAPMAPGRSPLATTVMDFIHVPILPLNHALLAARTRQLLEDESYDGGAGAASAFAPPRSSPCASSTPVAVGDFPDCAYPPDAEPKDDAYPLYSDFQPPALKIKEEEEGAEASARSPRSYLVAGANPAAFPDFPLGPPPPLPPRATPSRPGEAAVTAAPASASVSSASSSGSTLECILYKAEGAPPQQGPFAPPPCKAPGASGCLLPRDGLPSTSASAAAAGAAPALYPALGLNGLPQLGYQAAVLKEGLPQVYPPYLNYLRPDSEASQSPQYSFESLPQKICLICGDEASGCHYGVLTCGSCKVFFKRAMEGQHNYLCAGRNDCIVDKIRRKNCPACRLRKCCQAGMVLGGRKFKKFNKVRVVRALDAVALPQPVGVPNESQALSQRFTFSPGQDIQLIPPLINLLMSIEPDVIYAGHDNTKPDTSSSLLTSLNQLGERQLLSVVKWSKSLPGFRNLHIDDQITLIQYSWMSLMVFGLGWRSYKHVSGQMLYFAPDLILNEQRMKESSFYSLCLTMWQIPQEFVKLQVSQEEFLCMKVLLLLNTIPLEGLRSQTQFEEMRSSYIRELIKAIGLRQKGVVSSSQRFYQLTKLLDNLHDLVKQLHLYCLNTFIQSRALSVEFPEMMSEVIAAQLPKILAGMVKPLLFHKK

5α-reductase-Type-2 = biological target: T2, 5α-reductase-Type-2 (Homo sapiens, UniProt P31213); test: 5α-reductase-Type-2 activity in genital skin homogenates; assay type: biochemical; details: optimum conditions at pH=5.5
T2 construct: Under optimum conditions at pH=5.5 in genital skin homogenates; from tissue; host or cells: genital skin homogenates
T2 sequence (P31213 1-254): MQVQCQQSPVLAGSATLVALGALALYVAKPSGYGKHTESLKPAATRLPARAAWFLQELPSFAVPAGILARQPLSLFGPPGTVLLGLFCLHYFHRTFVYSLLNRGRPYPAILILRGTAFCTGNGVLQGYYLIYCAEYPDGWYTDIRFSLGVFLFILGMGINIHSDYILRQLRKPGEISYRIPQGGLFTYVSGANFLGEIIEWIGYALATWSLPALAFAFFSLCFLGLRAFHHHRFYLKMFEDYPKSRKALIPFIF
Excerpt: Subsequently experimental data for progesterone receptor binding, 5α-reductase-type-2 activity in genital skin homogenates and in vivo data in the case of the exemplary compound of the invention, (E)-17α-fluoro-3-oxo-estra-4-en-17β-carbaldehyde oxime, are reported here.

Progesterone Receptor = biological target: T3, Progesterone Receptor (Oryctolagus cuniculus, UniProt P06186); test: Binding to progesterone receptor, uterus cytosol, tracer 3H-ORG 2058; details: rabbit uterus cytosol, 0–4° C., 18 h, Progesterone=100%
T3 construct: Biological material: Uterus cytosol, rabbit, pressed; from tissue; host or cells: rabbit uterus cytosol
T3 sequence (P06186 1-930): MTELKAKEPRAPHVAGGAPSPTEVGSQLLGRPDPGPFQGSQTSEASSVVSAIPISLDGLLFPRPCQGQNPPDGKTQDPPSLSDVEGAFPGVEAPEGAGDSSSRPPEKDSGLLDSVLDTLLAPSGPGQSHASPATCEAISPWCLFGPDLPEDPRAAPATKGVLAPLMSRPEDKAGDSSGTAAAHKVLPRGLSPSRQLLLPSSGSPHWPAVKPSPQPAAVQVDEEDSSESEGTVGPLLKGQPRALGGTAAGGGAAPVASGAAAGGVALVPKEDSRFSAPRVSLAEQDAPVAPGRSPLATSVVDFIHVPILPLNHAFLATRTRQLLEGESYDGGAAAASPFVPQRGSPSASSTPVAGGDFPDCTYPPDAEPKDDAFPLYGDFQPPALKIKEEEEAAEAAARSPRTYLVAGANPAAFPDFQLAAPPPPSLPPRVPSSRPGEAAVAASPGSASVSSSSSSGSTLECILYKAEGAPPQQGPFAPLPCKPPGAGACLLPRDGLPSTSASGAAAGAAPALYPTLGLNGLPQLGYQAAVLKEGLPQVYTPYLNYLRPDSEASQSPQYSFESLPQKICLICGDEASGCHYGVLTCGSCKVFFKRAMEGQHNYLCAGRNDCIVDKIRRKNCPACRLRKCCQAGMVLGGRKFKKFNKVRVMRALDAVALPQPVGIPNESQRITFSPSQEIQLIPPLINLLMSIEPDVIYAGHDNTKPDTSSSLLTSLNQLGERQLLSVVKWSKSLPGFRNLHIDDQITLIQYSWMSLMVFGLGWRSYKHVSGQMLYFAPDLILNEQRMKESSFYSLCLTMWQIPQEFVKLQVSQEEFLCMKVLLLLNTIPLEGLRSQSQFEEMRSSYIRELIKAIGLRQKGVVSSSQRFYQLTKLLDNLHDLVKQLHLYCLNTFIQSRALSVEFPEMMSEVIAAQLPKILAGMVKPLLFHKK
Excerpt: Binding of Compound I to Progesterone Receptor

| Structure (SMILES) | Rate of Maintained Gravidity (pregnancy maintenance; dosage 0.003 Mg/animal/day) | Rate of Maintained Gravidity (pregnancy maintenance; dosage 0.03 Mg/animal/day) | Rate of Maintained Gravidity (pregnancy maintenance; dosage 0.3 Mg/animal/day) | IC50 (PR-B; PR-B agonism, read-out: Agonism IC50) | IC50 (PR-B; PR-B antagonism, read-out: Antagonism IC50) | IC50 (5α-reductase-Type-2) | Relative Binding affinity RBA (Progesterone Receptor) |
| --- | --- | --- | --- | --- | --- | --- | --- |
| C[C@]12CCC3C4CCC(=O)C=C4CCC3C1CC[C@]2(F)/C=N/O (stereo partly drawn) [Compound 7, (E)-17α-fluoro-3-oxo-estra-4-en-17β-carbaldehyde oxime] | 0/3 | 2/2 | 3/3 | 0.25 nM | 0.339 nM | 245 nM | – |
| CC(=O)[C@H]1CC[C@H]2[C@@H]3CCC4=CC(=O)CC[C@]4(C)[C@H]3CC[C@]12C [Progesterone] | – | – | – | – | – | – | 100% |
